Data as given in patent US8076520B2, “Phosphatidyl oligoglycerols” (Max-Planck-Gesellschaft zur Forderung der Wissenschaften …, priority 1996, dated 2011).

Experiments:
[1] = Behaviour of PP-G-PGn lipids in water (additional properties); type: physicochemical; conditions: for behaviour when heated in water: heated above 40° C. in water; for stability of the lamellar phases: low temperatures; for time until transition from the isotropic to the anisotropic phase is recognizable: room temperature; for behaviour when the temperature falls: temperature below 40° C.
Description: As the number of glycerol molecules increases, the number of free hydroxyl groups and thus also the polarity increases. […] Whereas the transition from the isotropic to the anisotropic phase at room temperature is recognizable after a few minutes with PP-G-PG2, it takes several hours for PP-G-PG3. The differences in polarity are also evident from the different retention factors (Rf) in the thin-layer chromatogram on silica gel.

[2] = in vivo
Experimental: In an animal experiment, liposomes were used which consisted of 40 mol % cholesterol, 10 mol % phosphatidylglycerol and 50% dipalmitoyl lecithin.
Liposomes of the same composition were prepared, in which the phosphatidylglycerol was replaced by a phosphatidylglycerol G2 of the invention. […] This linear relation was observed irrespective of the size of the liposomes. The same linear reduction in serum liposome concentration was found with 50 nm liposomes and with 150 nm liposomes. The linear reduction in blood liposome concentration was also observed for different starting concentrations.

Row | Substance | behaviour when heated in water [1] | stability of the lamellar phases [1] | time until transition from the isotropic to the anisotropic phase is recognizable [1] | behaviour when the temperature falls [1] | solution formed in water ([1]; proportion of 5% in water) | half-life in serum [2] | persistence characteristic (decrease of liposomes in serum with time) [2]
1 | 1.2-dipalmitoyl-sn-glycero-3-phospho-G1-G2 [PP-G-PG2] | dissolve when heated above 40 °C in water and form superstructures | remain stable even at low temperatures (down to 4° C.) | a few minutes | lamellar structures with differently pronounced hystereses are formed |  |  | 
2 | 1.2-dipalmitoyl-sn-glycero-3-phospho-G1-G2-G3 [PP-G-PG3] | dissolve when heated above 40 °C in water and form superstructures | remain stable even at low temperatures (down to 4° C.) | several hours | lamellar structures with differently pronounced hystereses are formed |  |  | 
3 | 1.2-dipalmitoyl-sn-glycero-3-phospho-G1-G2-G3-G4 [PP-G-PG4] |  |  |  |  | clear isotropic solution |  | 
4 | phosphatidylglycerol |  |  |  |  |  | 4 h | a rapid decrease to start with, followed by a slower decrease
